Measured values as given in PubChem BioAssay (NCI).
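Grown in 96-well plates, cells were treated for 48 hours with each compound at five concentrations. Insufficient inhibition: endpoint recorded as highest concentration tested. At the TGI there is no net growth.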

Tests used:
Experiment in all cases: NCI tumour cell line growth inhibition, 48 h
[1] = tested on: RPMI-8226 leukemia
[2] = tested on: CCRF-CEM leukemia
[3] = tested on: UACC-257 melanoma
[4] = tested on: IGROV1 ovarian
[5] = tested on: SNB-75 CNS
[6] = tested on: BT-549 breast
[7] = tested on: SK-MEL-5 melanoma
[8] = tested on: MCF7 breast
[9] = tested on: OVCAR-5 ovarian
[10] = tested on: MDA-MB-231 breast

| SMILES | TGI [1] | TGI [2] | TGI [3] | TGI [4] | TGI [5] | TGI [6] | TGI [7] | TGI [8] | TGI [9] | TGI [10] |
| --- | --- | --- | --- | --- | --- | --- | --- | --- | --- | --- |
| O=c1oc2ccc3ccccc3c2cc1-c1nc2ccccc2s1 | > 32.8 µM | > 100 µM | > 100 µM | > 100 µM | > 100 µM | > 100 µM | > 100 µM | > 24.4 µM | > 100 µM | > 100 µM |
| COC(=O)C1=C(OC(=O)/C(=C/c2ccc(Cl)cc2)c2ccc(Cl)cc2)C(C(=O)OC)[C@@]2(O)[C@@H](C(=O)OC)[C@H](C)C[C@@H]1[C@@H]2C(=O)OC (stereo not given in full) | > 100 µM | > 100 µM | > 100 µM | > 100 µM | > 100 µM | > 100 µM | > 100 µM | > 100 µM | > 100 µM | > 100 µM |
| O=C1C=CC(=O)c2c1ccc1c3ccccc3n(CCCCCn3c4ccccc4c4ccc5c(c43)C(=O)C=CC5=O)c21 | 18.8 µM | 6.58 µM | 39.5 µM | 20.6 µM | 32.9 µM | 82 µM | > 86.1 µM | 43.3 µM | > 78.1 µM | 46.8 µM |
| C=C(Cl)C(=CCl)CCC(Br)C(C)(C)Cl (mixture of isomers) | > 10 µM | 6.89 µM | > 10 µM | > 10 µM | > 10 µM | > 10 µM | > 10 µM | > 10 µM | > 10 µM | > 10 µM |
| CN(C)c1ccc(/C=c2/c3ccccc3n3c2c2c([n+]3C)CCCC2)cc1 | 0.656 µM | 5.17 µM | 2.88 µM | 1.82 µM | 0.265 µM | 2.19 µM | 0.217 µM | 0.321 µM | 5.86 µM | 2.79 µM |
